In patent US20260002121A1, “IMPROVED METHODS OF PREPARING DIFFERENT MESODERM CELL TYPES” (Children's Hospital Medical Center, priority 2021, published 2026):

Key:
hPSC-derived mesoderm = assay: Quantitative RT-PCR gene expression of differentiating mesoderm (Example 11); type: cell-based, human; conditions: longer and higher levels of Wnt activation (CHIR timing)
Method: Total RNA was prepared from differentiating human ES cells by using Nucleospin kit according to manufacturer's protocol. Reverse transcription PCR was performed by Superscript VILO cDNA synthesis kit. QuantStudio 5 and 6 were used for qPCR analyses. Statistics were performed with PRISM8 (GraphPad Software). Significance was determined by one-way ANOVA, followed by Tukey's test.
After SpM differentiation, the cells can be observed with an inverted microscope. The cells should be at 100% confluency (FIG. 9A). The efficiency of SpM induction can be checked by immunostaining for FOXF1 and/or ISL1, or expression of relative gene profiles as provided in Table 1.
The efficiency of organ-specific mesoderm differentiation can be checked by immunostaining for WT1, PITX1, FOXF1, NKX6.1, and/or TBX5, or expression of relative gene profiles as provided in Table 1.

[1] = system: hPSC-derived lateral plate mesoderm / splanchnic mesoderm cultures; assay: RT-PCR of marker genes in hPSC-derived lateral plate/splanchnic mesoderm cultures (Example 9); type: cell-based, human; conditions: primitive SM treated d4-d7
Method: Differentiation of hPSCs into lateral plate mesoderm was induced using previously described methods with modifications. In brief, partially confluent hPSCs were dissociated into very fine clumps in Accutase (Invitrogen) and passaged 1:18 onto new Geltrex-coated 24-well plates for immunocytochemistry and 12-well plates for RNA preparation in mTeSR1 with 1 μM thiazovivin (Tocris) ([…]). Next day, a brief wash with DMEM/F12 was followed with Day 0 medium (30 ng/mL Activin A (Cell Guidance Systems), 40 ng/mL. BMP4 (R&D Systems), 6 μM CHIR99021 (Tocris), 20 ng/mL FGF2 (Thermo Fisher), 100 nM PIK90 (EMD Millipore)) for 24 hours. A basal media composed of Advanced DMEM/F12, N2, B27, 15 mM HEPES, 2 mM […], penicillin-streptomycin was used for this Day 0 medium and all subsequent differentiations. On Day 1, a brief wash with DMEM/F12 was followed with Day 1 medium (1 μM A83-01 (Tocris), 30 ng/mL BMP4, 1 μM C59 (Cellagen Technology)) for 24 hours. For cardiac mesoderm generation, cells were cultured in 1 μM A83-01, 30 ng/mL BMP4, 1 μM C59, 20 ng/mL FGF2 from Day 2 to Day 4 (medium changed every day). From Day 4, cells were cultured in 200 μg/mL 2-phospho-ascorbic acid (Sigma), 1 μM XAV939 (Sigma), 30 ng/mL BMP4 for 3 days. […] Significance was determined by one-way ANOVA, followed by Tukey's test.

Compound | NKX6-1 expression (hPSC-derived mesoderm) | WNT2 expression (hPSC-derived mesoderm) | organ-specific SM-like lineage identity (gene expression) [1]
Cc1c[nH]c(-c2cnc(NCCNc3ccc(C#N)cn3)nc2-c2ccc(Cl)cc2Cl)n1 [CHIR, CHIR99021] | suppressed | promoted | 
c1ccc2c(Oc3nc(Nc4ccc(N5CCOCC5)cc4)c4ncn(C5CCCCC5)c4n3)cccc2c1 [HH-agonist, purmorphamine] |  |  | promoted gut tube identity and efficiently blocked the hepatic fate
